Consider eight molecules from PubChem BioAssay (NCI).

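Following 48 hours of exposure in 96-well plates, responses at five concentrations were used to interpolate endpoints linearly. GI50 marks 50% less growth. Definition used: TGI = concentration required for complete inhibition of growth.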

Test systems include M14 melanoma; NCI-H226 lung; EKVX NSCLC; LOX IMVI melanoma; OVCAR-8 ovarian; SK-MEL-28 melanoma; NCI-H522 lung; BT-549 breast; NCI/ADR-RES ovarian; OVCAR-5 ovarian.
What all share (test): NCI anticancer screen, dose series, 48 h

With `Cc1ccc(NC2=C(Cl)C(=O)c3nc(C)ccc3C2=O)cc1`, the GI50 was 1.67 µM in the assay with M14 melanoma; 1.41 µM in the assay with NCI-H226 lung; 1.55 µM in the assay with EKVX NSCLC; 0.711 µM in the assay on LOX IMVI melanoma; 1.47 µM with OVCAR-8 ovarian; 1.93 µM with SK-MEL-28 melanoma. In addition, the GI50 in the assay with NCI-H522 lung was 1.88 µM; in the assay with BT-549 breast it was 1.45 µM; in the assay on NCI/ADR-RES ovarian, 1.73 µM; in the assay on OVCAR-5 ovarian, 1.87 µM. Moreover, the TGI came out at 3.22 µM in the assay with M14 melanoma; 3.2 µM in the assay with NCI-H226 lung; 2.92 µM with EKVX NSCLC; 2.22 µM with LOX IMVI melanoma; 3.14 µM in the assay on OVCAR-8 ovarian; 3.43 µM in the assay on SK-MEL-28 melanoma. Also, the TGI is 4.53 µM in the assay with NCI-H522 lung, 2.82 µM with BT-549 breast, 4.62 µM in the assay on NCI/ADR-RES ovarian and 3.62 µM in the assay on OVCAR-5 ovarian.

For the molecule `CS(=O)(=O)c1ccc(C(F)(F)F)cc1NC(=O)Nc1cnc(Oc2ccc(-c3cc(Cl)cnc3N)cc2)nc1`, the GI50 is 2.02 µM in the assay with M14 melanoma; 2.75 µM in the assay with NCI-H226 lung; 2.57 µM in the assay with EKVX NSCLC; 1.62 µM with LOX IMVI melanoma; 2.86 µM in the assay with OVCAR-8 ovarian; 2.21 µM with SK-MEL-28 melanoma. Further, the GI50 in the assay on NCI-H522 lung is 2.23 µM; in the assay with BT-549 breast, 2.26 µM; in the assay on NCI/ADR-RES ovarian, 2.92 µM; in the assay with OVCAR-5 ovarian, 3.1 µM. In addition, the TGI in the assay with M14 melanoma is 4.8 µM; in the assay with NCI-H226 lung, 26.3 µM; in the assay with EKVX NSCLC, greater than 37.5 µM; with LOX IMVI melanoma, 3.05 µM; with OVCAR-8 ovarian, greater than 29 µM; in the assay on SK-MEL-28 melanoma, 5.62 µM. The TGI in the assay on NCI-H522 lung is 6.64 µM; in the assay with BT-549 breast, 6.5 µM; in the assay on NCI/ADR-RES ovarian it was greater than 31 µM; in the assay with OVCAR-5 ovarian it was 15.9 µM.

Consider `CCN(C)S(=O)(=O)Nc1cccc(Nc2ncnc3cc(NC(=O)CCl)ccc23)c1Cl`, for which the GI50 is 1.77 µM in the assay on M14 melanoma; 3.68 µM in the assay with NCI-H226 lung; 3.9 µM in the assay on EKVX NSCLC; 1.01 µM in the assay with LOX IMVI melanoma; 5.18 µM in the assay with OVCAR-8 ovarian; 3.92 µM in the assay on SK-MEL-28 melanoma. The GI50 in the assay with NCI-H522 lung was 0.693 µM; with BT-549 breast, 2.54 µM; in the assay on NCI/ADR-RES ovarian, 9.17 µM; with OVCAR-5 ovarian, 2.62 µM. Further, the TGI in the assay on M14 melanoma came to 7.34 µM; in the assay with NCI-H226 lung, 12.6 µM; in the assay on EKVX NSCLC it was 13.6 µM; in the assay with LOX IMVI melanoma, 4.44 µM; in the assay with OVCAR-8 ovarian it was 17.6 µM; with SK-MEL-28 melanoma, 15.8 µM. For the same molecule, the TGI in the assay with NCI-H522 lung is 2.03 µM; in the assay on BT-549 breast, 6.66 µM; in the assay with NCI/ADR-RES ovarian it was greater than 25 µM; in the assay with OVCAR-5 ovarian, 6.76 µM.

Take `N#Cc1ccc(-n2cnc(NC(=O)[C@H]3CCN(C#N)C3)c2)cc1`: the GI50 with M14 melanoma was 0.757 µM; in the assay with NCI-H226 lung, 2.51 µM; in the assay with EKVX NSCLC, 2.38 µM; with LOX IMVI melanoma it was 1.27 µM; in the assay with OVCAR-8 ovarian it was 1.92 µM; with SK-MEL-28 melanoma it was 2.64 µM. Further, the GI50 was 0.567 µM with NCI-H522 lung, 0.248 µM with BT-549 breast, 2.41 µM with NCI/ADR-RES ovarian and 3.3 µM with OVCAR-5 ovarian. In addition, the TGI in the assay on M14 melanoma is 6.28 µM; with NCI-H226 lung it was 9.85 µM; in the assay on EKVX NSCLC, 10.1 µM; with LOX IMVI melanoma it was greater than 100 µM; in the assay on OVCAR-8 ovarian it was greater than 100 µM; in the assay with SK-MEL-28 melanoma, greater than 100 µM. The TGI in the assay with NCI-H522 lung is 4.43 µM; with BT-549 breast, 2.47 µM; in the assay on NCI/ADR-RES ovarian it was greater than 86.8 µM; in the assay on OVCAR-5 ovarian, greater than 100 µM.

Turning to `CC(=O)N1c2ccccc2C23CCN4CC5=CCOC(O)C(C5CC42)C13` (stereo not given), the TGI with M14 melanoma, in the assay with NCI-H226 lung, in the assay on EKVX NSCLC, in the assay with LOX IMVI melanoma, in the assay with OVCAR-8 ovarian and in the assay with SK-MEL-28 melanoma was greater than 100 µM throughout. Besides, the TGI in the assay with NCI-H522 lung, with BT-549 breast, in the assay with NCI/ADR-RES ovarian and in the assay on OVCAR-5 ovarian was greater than 100 µM throughout.

For the molecule `Cc1ccnc2c1NC(=O)c1cccnc1N2C1CC1`, the GI50 in the assay on M14 melanoma, with NCI-H226 lung, in the assay with EKVX NSCLC, in the assay on LOX IMVI melanoma, with OVCAR-8 ovarian and with SK-MEL-28 melanoma was greater than 100 µM each time. Further, the GI50 in the assay on NCI-H522 lung, with BT-549 breast, in the assay on NCI/ADR-RES ovarian and in the assay on OVCAR-5 ovarian was greater than 100 µM in each case. Besides, the TGI in the assay on M14 melanoma, with NCI-H226 lung, in the assay on EKVX NSCLC, with LOX IMVI melanoma, in the assay with OVCAR-8 ovarian and in the assay with SK-MEL-28 melanoma was greater than 100 µM throughout. Further, the TGI in the assay on NCI-H522 lung, with BT-549 breast, in the assay on NCI/ADR-RES ovarian and in the assay on OVCAR-5 ovarian was greater than 100 µM each time.

For the molecule `CCOC(=O)C(=Cc1ccc(Br)cc1)C(=O)OCC`, the GI50 in the assay with M14 melanoma was 1.8 µM; with NCI-H226 lung, 1.96 µM; with EKVX NSCLC, 1.88 µM; in the assay on LOX IMVI melanoma, 0.793 µM; in the assay on OVCAR-8 ovarian, 2.36 µM; with SK-MEL-28 melanoma, 1.89 µM. Further, the GI50 in the assay with NCI-H522 lung is 1.75 µM; with BT-549 breast, 1.49 µM; in the assay on NCI/ADR-RES ovarian, 2.78 µM; in the assay on OVCAR-5 ovarian it was 2.66 µM. The TGI turned out to be 3.68 µM in the assay with M14 melanoma; 5.5 µM in the assay with NCI-H226 lung; 4.64 µM in the assay with EKVX NSCLC; 2.24 µM in the assay with LOX IMVI melanoma; 6.79 µM in the assay on OVCAR-8 ovarian; 3.62 µM in the assay on SK-MEL-28 melanoma. Further, the TGI is 4.22 µM with NCI-H522 lung, 3.11 µM in the assay with BT-549 breast, greater than 20.4 µM in the assay with NCI/ADR-RES ovarian and 6.52 µM in the assay with OVCAR-5 ovarian.

As to `O=C(c1cccs1)c1c(C(F)(F)F)n([O-])c2cc(F)c(F)cc2[n+]1=O`, the GI50 was 2.48 µM in the assay with M14 melanoma; 3.62 µM in the assay with NCI-H226 lung; 2.44 µM in the assay on EKVX NSCLC; 0.747 µM in the assay on LOX IMVI melanoma; 2.77 µM with OVCAR-8 ovarian; 1.91 µM in the assay on SK-MEL-28 melanoma. Also, the GI50 with NCI-H522 lung was 1.84 µM; in the assay on BT-549 breast, 1.91 µM; with NCI/ADR-RES ovarian, 2.1 µM; in the assay on OVCAR-5 ovarian it was 3.57 µM. Besides, the TGI with M14 melanoma stood at 6.6 µM; in the assay on NCI-H226 lung, 7.47 µM; in the assay with EKVX NSCLC it was 6.73 µM; with LOX IMVI melanoma, 1.78 µM; in the assay on OVCAR-8 ovarian, 5.16 µM; with SK-MEL-28 melanoma, 3.7 µM. The TGI with NCI-H522 lung came out at 3.13 µM; with BT-549 breast, 3.24 µM; in the assay with NCI/ADR-RES ovarian, 4.77 µM; in the assay with OVCAR-5 ovarian, 5.58 µM.
